# “And” between values parts separate entries of the source, which are not always exact repeats. Identical values can stand only once.
# Experiments:
# [1] = tested on: topoisomerase II expression in NIH3T3 cells
# [2] = biological target: reduced-folate carrier (RFC) (Homo sapiens, UniProt P41440); conditions: read-out: Km for the RFC
# metastatic breast cancer = conditions: in vivo
# advanced breast cancer = conditions: in vivo
# breast cancer cell lines [3] = tested on: breast cancer cell lines
# breast cancer cell lines [4] = conditions: cited from earlier work
# DNA-topoisomerase I = DNA-topoisomerase I (Homo sapiens, UniProt P11387); assay type: biochemical
# [5] = in vivo
# [6] = in vivo; remark: listed apart in the source
# [7] = in vivo; remark: listed apart in the source
# [8] = tested on: NQO2-transfected rodent or non-transfected human tumor cell lines
# metastatic RCC = tested on: metastatic RCC; parameters: species or system human; conditions: in vivo, po
# [9] = mouse, in vivo
# [10] = in vivo; remark: listed apart in the source
# anal carcinoma = conditions: in vivo
# [11] = tested on: advanced head and neck cancer; conditions: in vivo
# VB6 and H357 SCC cells = assay type: cell-based, human
# [12] = tested on: liver metastases (murine T50/80 breast); parameters: species or system mice; conditions: mouse, in vivo
# SCLC = conditions: in vivo
# carcinoma of cervix = conditions: in vivo
# cervix cancer = conditions: in vivo
# [13] = in vivo; remark: listed apart in the source
# Chain of DNA-topoisomerase I (P11387 whole entry): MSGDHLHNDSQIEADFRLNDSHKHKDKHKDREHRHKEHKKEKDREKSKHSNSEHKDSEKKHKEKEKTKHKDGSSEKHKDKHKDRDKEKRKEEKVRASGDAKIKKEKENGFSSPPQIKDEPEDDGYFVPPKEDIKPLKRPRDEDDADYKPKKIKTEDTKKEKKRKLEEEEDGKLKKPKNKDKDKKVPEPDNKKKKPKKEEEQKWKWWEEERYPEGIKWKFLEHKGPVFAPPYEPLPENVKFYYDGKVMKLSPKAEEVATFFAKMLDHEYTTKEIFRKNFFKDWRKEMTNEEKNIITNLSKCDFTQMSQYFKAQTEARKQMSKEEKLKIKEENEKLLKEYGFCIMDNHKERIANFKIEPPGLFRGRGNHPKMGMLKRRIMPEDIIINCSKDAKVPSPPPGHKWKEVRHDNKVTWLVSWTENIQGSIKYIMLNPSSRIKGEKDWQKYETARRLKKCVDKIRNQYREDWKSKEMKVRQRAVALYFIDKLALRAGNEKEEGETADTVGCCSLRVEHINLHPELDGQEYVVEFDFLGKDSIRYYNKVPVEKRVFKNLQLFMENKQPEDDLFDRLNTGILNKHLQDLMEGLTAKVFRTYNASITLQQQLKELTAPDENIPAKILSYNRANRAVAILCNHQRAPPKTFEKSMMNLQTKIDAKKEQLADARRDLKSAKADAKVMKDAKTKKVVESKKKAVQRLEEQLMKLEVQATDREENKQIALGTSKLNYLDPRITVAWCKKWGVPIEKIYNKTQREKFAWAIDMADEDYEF
# Chain of reduced-folate carrier (RFC) (P41440 whole entry): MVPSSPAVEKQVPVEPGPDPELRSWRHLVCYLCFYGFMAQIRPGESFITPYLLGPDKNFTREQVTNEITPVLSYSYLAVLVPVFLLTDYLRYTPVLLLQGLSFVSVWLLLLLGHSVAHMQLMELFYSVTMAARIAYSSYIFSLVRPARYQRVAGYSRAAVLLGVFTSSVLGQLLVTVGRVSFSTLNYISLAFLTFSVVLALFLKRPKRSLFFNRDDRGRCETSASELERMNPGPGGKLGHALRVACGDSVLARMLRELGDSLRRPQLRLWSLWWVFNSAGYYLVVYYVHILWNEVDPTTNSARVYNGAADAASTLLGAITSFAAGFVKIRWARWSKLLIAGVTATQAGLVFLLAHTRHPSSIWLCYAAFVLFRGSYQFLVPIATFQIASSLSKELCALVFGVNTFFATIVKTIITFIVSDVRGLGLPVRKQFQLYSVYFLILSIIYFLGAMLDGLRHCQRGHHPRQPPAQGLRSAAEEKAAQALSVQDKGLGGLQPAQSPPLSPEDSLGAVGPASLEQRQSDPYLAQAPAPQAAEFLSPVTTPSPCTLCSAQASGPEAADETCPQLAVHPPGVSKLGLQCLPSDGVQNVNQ
compound,measurement,setting,value
CCOc1ccc(-c2nc3ccc(-c4nc5ccc(N6CCN(C)CC6)cc5[nH]4)cc3[nH]2)cc1 [Hoechst 33342],expression of top2 at confluence,[1],increased expression
C#CCN(Cc1cc2c(=O)[nH]c(C)nc2cc1C)c1ccc(C(=O)N[C@@H](CCc2nnn[nH]2)C(=O)O)c(F)c1 [ZD9331],Km,[2],1 to 2 µM
CC(=O)O[C@@]12CO[C@@H]1C[C@H](O)[C@@]1(C)C(=O)[C@H](O)C3=C(C)[C@@H](OC(=O)[C@H](O)[C@@H](NC(=O)OC(C)(C)C)c4ccccc4)C[C@@](O)([C@@H](OC(=O)c4ccccc4)[C@H]21)C3(C)C [TAX],median survival,metastatic breast cancer,204 days
same,patients requiring admission due to neutropenic sepsis,metastatic breast cancer,40%
same,patients showing response,metastatic breast cancer,53%
CC/C(=C(\c1ccccc1)c1ccc(OCCN(C)C)cc1)c1ccccc1 [TAM],OR (CR+PR),advanced breast cancer,27%
same,median TTP,advanced breast cancer,7.0 months and 6.4 months
same,thromboembolic events,advanced breast cancer,7.6%
same,vaginal bleeding,advanced breast cancer,2.9%
"COc1cc2c(cc1OS(N)(=O)=O)CC[C@@H]1[C@@H]2CC[C@]2(C)C(=O)CC[C@@H]12 [2-MeOEMATE, 2-Methoxyestrone-3-O-Sulfamate]",fold more potent than parent compounds,breast cancer cell lines [3],> 10 fold
same,effect on tubulin assembly,tubulin,inhibited the ability of paclitaxel to promote tubulin assembly
same,G2/M arrest in breast cancer cells in vitro,breast cancer cell lines [4],induced G2/M arrest
CC[C@@]1(O)C(=O)OCc2c1cc1n(c2=O)Cc2cc3ccccc3nc2-1 [camptothecin],nicked DNA / cleavage,DNA-topoisomerase I,90%
CC(C)(C#N)c1cc(Cn2cncn2)cc(C(C)(C)C#N)c1 [AN],OR (CR+PR),advanced breast cancer,29%
same,median TTP,advanced breast cancer,8.5 months and 10.7 months
same,thromboembolic events,advanced breast cancer,4.5%
same,vaginal bleeding,advanced breast cancer,1.2%
carboplatin,"AUC achieved, mean standard deviation",[5],11420 % of target
same,Grade 1 reaction,[6],45 % of patients
same,HSR on rechallenge with a platinum compound,[6],66%
same,grade II reaction,[6],25 % of patients
same,grade III reaction,[6],30 % of patients
same,incidence of HSR,[6],10.5%
same,mean duration of HSR,[6],44 min
same,mean time interval between initial exposure and HSR,[6],26.5 months
same,mean time of onset of symptoms,[6],14.5 min
same,overall incidence of HSR,[6],4.5%
"NC(=O)c1cc(N2CC2)c([N+](=O)[O-])cc1[N+](=O)[O-] [CB1954, 5-(aziridin-l-yl)-2,4-dinitrobenzamide]",drug unchanged in the urine,[7],< 5%
same,median elimination half-life,[7],51 min
same,time serum levels greater than 0.1 µM,[7],more than 4 hours
same,time serum levels greater than 1 M,[7],2 h
same,maximum tolerated dose (MTD),[7]; iv,37.5 mg/m2
same,increase in CB 1954 cytotoxicity in the presence of NRH,[8],100-3000 fold
O=P(O)(O)C(O)(Cn1ccnc1)P(=O)(O)O [zoledronate],proportion of apoptotic cells,MCF7 cells,significant increase
O=C1CCC(N2C(=O)c3ccccc3C2=O)C(=O)N1 (stereo not shown) [Thalidomide],response rate,metastatic RCC,10%
CC[C@H](CO)Nc1nc(NCc2ccccc2)c2ncn(C(C)C)c2n1 [roscovitine],cross-resistance of HCT116/8FP cells,colorectal cell lines,no cross-resistance
same,"correlation of PK parameters, combination vs alone (spearman r)",[9],0.99
same,ranking of AUC and clearance,[9],highest AUC and the lowest clearance
O=c1[nH]cc(F)c(=O)[nH]1 [5-FU],Kelim,[10],3.7 0.8 hr-1
same,PD,anal carcinoma,4%
same,PR,anal carcinoma,22%
same,acute skin toxicity grade 3,anal carcinoma,96%
same,clinical CR,anal carcinoma,74%
Cn1cnc2c(NCc3ccccc3)nc(NCCO)nc21 [olomoucine],"correlation of PK parameters, combination vs alone (spearman r)",[9],0.90
"COc1cc(/C=C/C(=O)CC(=O)/C=C/c2ccc(O)c(OC)c2)ccc1O [curcumin, diferuloylmethane]",metabolism,hepatocytes,"metabolised to THC, HHC and HHCO"
"C[C@]12CC[C@@H]3c4ccc(O)cc4CC[C@H]3[C@@H]1CC[C@@H]2O [E2, Oestradiol]",induction of integrin 1 expression,MCF-7,1.7 fold
same,reduction of integrin 1 expression,MCF-7,29%
Oc1cccc(-c2c3nc(c(-c4cccc(O)c4)c4ccc([nH]4)c(-c4cccc(O)c4)c4nc(c(-c5cccc(O)c5)c5ccc2[nH]5)CC4)C=C3)c1 [Foscan],neurotoxicity,[11],No specific neurotoxicity
same,tumour effect,[11],consistent tumour necrosis
COc1c(C[C@@H](C)OC(=O)Oc2ccc(O)cc2)c2c3c(C[C@@H](C)OC(=O)c4ccccc4)c(OC)c(=O)c4c(O)cc(OC)c(c5c(OC)cc(O)c(c1=O)c52)c43 [Calphostin C],VB6 cell migration reduced to,VB6 and H357 SCC cells,7.8%
COc1ccc(/C=C\c2cc(OC)c(OC)c(OC)c2)cc1O [combretastatin A4],average decrease in tumour volume,[12],30%
C[C@@H](O)[C@@H]1NC(=O)[C@H](CCCCN)NC(=O)[C@@H](Cc2c[nH]c3ccccc23)NC(=O)[C@H](Cc2ccccc2)NC(=O)[C@@H](NC(=O)[C@H](N)Cc2ccccc2)CSSC[C@@H](C(=O)N[C@H](CO)[C@@H](C)O)NC1=O [Octreotide],neutropenic pyrexia,SCLC,9 % of treatment cycles
N.N.[Cl][Pt][Cl] [cisplatin],general malaise,carcinoma of cervix,56%
same,grade 3 or severe (grade 4) neutropaenia,cervix cancer,27%
same,some degree of neutropaenia,cervix cancer,70 % of patients
same,thrombocytopaenia,cervix cancer,12%
same,hypomagnesaemia,[13],14 % of all chemotherapy cycles
COc1cc2c(c(OC)c1OC)-c1ccc(O)cc1[C@@H](NC(C)=O)CC2 [N-acetylcolchinol],concentrations at which toxicity/antiproliferative effects occur,HUVECs,> 100 M

# — publication PMC2363545 (British Journal of Cancer, 2000)
